Data taken from patent publication US8927534B2, “Compounds for the inhibition of integrins and use thereof” (Shire Orphan Therapies GmbH, priority 2006, dated 2015).

How the values were obtained:
[1] = molecular target: integrin alpha5beta1 extracellular domain Fc-fusion (Homo sapiens (Human), UniProt P05556+P08648); test: alpha5beta1-Fibronectin binding assay (competitive ELISA); conditions: inhibition of integrin binding to coated fibronectin
Experimental: (§1) The optimal concentrations of integrin and ligand were selected from ELISA binding studies with variable concentrations of both to obtain optimal signal noise ratio for further studies. IC50 studies were performed with fixed concentration of ligand and integrin and a serial dilution of inhibitor. The plates were measured with SpectraMax Plus reader (Molecular Devices). The resulting inhibition curves were analyzed using SoftMaxPro 4.0 software, the turning point describes the IC50 value.
(§2) Fibronectin was purchased from Sigma and fibrinogen from Calbiochem. (EMD Biosciences, Darmstadt, Germany). The integrin alpha5beta1 extracellular domain Fc-fusion was expressed and purified as described (Coe, 2001, J. Biol. Chem., 276, 35854). Integrin alphaIIbbeta3 was purchased form Kordia (Kordia Life Science, Leiden, Netherlands)
Fibronectin was diluted with coating buffer (15 mM Na2CO3, 35 mM NaHCO3, pH 9.6) and coated with 100 μL/well to Nunc-Immuno maxisorp plates (Nalge Nunc Europe Ltd) over night at 4° C. After discarding the coating solution plates were washed 3 times with buffer 1 (25 mM Tris, pH 7.6, 150 mM NaCl, 1 mM MnCl2, 1 mg/ml BSA) and blocked with 100 μL blocking buffer (3% BSA in PBS 0.1% Tween20) for 1 hour at room temperature. After washing the blocked plates (3 times) with buffer 1, integrin (50 μL) and either inhibitor (serial dilution in buffer 1) or buffer 1 (50 μL) were added to the wells and incubated for one hour at RT. Plates were then washed (3 times) with buffer 1 and incubated with 100 μL of anti-human-Fc-HRP antibody conjugate (Sigma-Aldrich, Taufkirchen, Germany) in buffer 1 for 1 hour at RT. After additional washing steps (3 times) with buffer 150 μL of HRP substrate solution TMB (Seramun, Germany) were added to the wells. Color development was stopped after 3-5 minutes with 50 μL 1 M H2SO4. The developed color was measured at 450 nm and analyzed as described above.

Integrin alphaIIbbeta3 = Integrin alphaIIbbeta3 (Homo sapiens (Human), UniProt P05106+P08514); test: alphaIIbbeta3-Fibrinogen binding assay (competitive ELISA); conditions: inhibition of integrin binding to coated fibrinogen; read-out: IC50 alphabIIbbeta3
Experimental: as §1, §2
Fibrinogen was diluted with coating buffer (15 mM Na2CO3, 35 mM NaHCO3, pH 9.6) and coated with 100 μL/well to Nunc-Immuno maxisorp plates over night at 4° C. After discarding the coating solution plates were washed 3 times with buffer 1 (25 mM Tris, pH 7.6, 150 mM NaCl, 1 mM MnCl2, 1 mg/ml BSA) and blocked with 100 μL blocking buffer (3% BSA in PBS 0.1% Tween20) for 1 hour at room temperature. After washing the blocked plates (3 times) with buffer 1, integrin alphaIIbbeta3 (50 μL) and either inhibitor (serial dilution in buffer 3, 25 mM Tris, pH 7.6, 150 mM NaCl, 1 mM MnCl2, 1 mg/ml BSA 1 mM MgCl2, 1 mM CaCl2,) or buffer 3 (50 μL) were added to the wells and incubated for one hour at RT. Plates were then washed (3 times) with buffer 3 and incubated with 100 μL of anti-alphaIIbbeta3 antibody (anti CD41b, Pharmingen) in buffer 3 for 1 hour at RT. Plates were washed (3 times) with buffer 3 and incubated for 1 hour with 100 μL secondary antibody (anti-mouse-HRP conjugate, Sigma) in buffer 3. After additional washing steps (3 times) with buffer 350 μL of HRP substrate solution TMB (Seramun) were added to the wells. Color development was stopped after 3-5 minutes with 50 μL 1 M H2SO4. The developed color was measured at 450 nm and analyzed as described above.

alpha5beta1 = alpha5beta1 (Homo sapiens (Human), UniProt P05556+P08648); test: Cell adhesion assay with HEK293; format: cell-based; conditions: HEK293 cells, fibronectin-coated plates, 1 h at 37° C., 2 mM MgCl2
Experimental: Cryopreservated cells were thawed and grown for 72 h in DMEM medium with 10% FCS, 2 mM glutamine, 100 U/ml penicillin and 100 μg/ml streptomycin before use.
Cells were detached with cell dissociation solution (Sigma) and suspended in growth medium, centrifuged and resuspended in buffer A (150 mM NaCl, 25 mM HEPES, 2 mM EDTA, pH 7.4). Cells were incubated for 30 min at 37° C. in a 5% CO2. Subsequently, cells were washed with pre-warmed buffer B (150 mM NaCl, 25 mM HEPES pH 7.4) and resuspended in buffer B. 96-well Maxisorp-plate were coated with 0.01% poly-L-lysine, 10 μg/ml fibronectin (Chemicon; #F1904) in carbonate buffer or carbonate buffer alone (15 mM Na2CO3, 35 mM NaHCO3, pH 9.6) for 1 h at RT. Plates were washed and blocked with 1% BSA for 30 min at RT. Cells were preincubated with test compound and adjusted DMSO concentrations for 10 min at RT. 7×10^4 cells per well were plated in triplicate and allowed to attach for 1 h at 37° C. in the presence of 2 mM MgCl2. Cells were washed with PBS and adherent cells were fixed with 5% glutaraldehyde for 30 min.
Cells were subsequently washed and stained with 0.1% Crystal Violet for 1 hr at 37° C. Plates were washed and incorporated dye was solubilized with 10% acetic acid. Absorbance was measured at 570 nm using a Spectramax Plus 384 microtiter plate reader and analyzed with SoftMaxPro (Molecular Devices). Minimal binding on BSA was subtracted. IC50 values were determined using XL-FIT.

HUVEC = test: Migration assay with HUVEC; format: cell-based; conditions: Homo sapiens, transwell coated with chymotryptic fibronectin fragment, 10 ng/ml bFGF chemoattractant, 3 h
Experimental: Migration assays are carried out using modified Boyden chambers consisting of Fluoroblock Transwell membrane filter (8 μm pores) in 24 well companion tissue plates (BD). Three wells per group are used.
The underfaces of the transwell membranes are coated with chymotryptic fibronectin fragment (10 μg/ml; Chemicon) and blocked with 2% BSA for 1 h at room temperature. After rinsing with PBS transwells are placed into companion plates containing 700 μl serumfree medium with indicated compound concentrations and chemoattractant (10 ng/ml bFGF; Promocell).
HUVEC are maintained in standard culture medium (Endothelial Cell Growth Medium; Promocell, containing supplement mix and 2% FCS) in a humified 5% CO2 incubator at 37° C. Cells are grown to 70-90% confluency and are made quiescent in culture medium containing 0.5% FCS, 0.1% BSA, no supplements for 16 h. Medium is removed and serum-free medium (0% FCS; 0.1% BSA, no supplements) is added for 1.5 h. Cells are detached with trypsin and cell suspension is adjusted to 1×10^5/ml. Indicated compound concentrations are added to cells. Cells are preincubated with compounds for 15 min, before seeding of 250 μl of the cell suspensions into the transwells. Cells are allowed to migrate for 3 h in 37° C. incubator with 5% CO2. Then, transwells are transferred to 24 well companion tissue plates containing Calcein AM (4 μM; Molecular Probes) in HBSS and incubated for another 2 h. Plates are read at excitation/emission […] in a fluorescence reader.
Results are expressed as percent of control (cells in serumfree medium without compound and chemoattractant.

CCc1cc(F)cc(C)c1C(=O)NC(Cc1ccc(N2CCC(CNc3ccccn3)CC2)cc1)C(=O)O (centres unmarked) [Compound 120, 2-(2-ethyl-4-fluoro-6-methylbenzamido)-3-(4-(4-((pyridin-2-ylamino)methyl)piperidin-1-yl)phenyl)propanoic acid]
IC50 [1]: < 100 nM | IC50 (Integrin alphaIIbbeta3): > 1000 nM | IC50 (alpha5beta1): < 2000 nM | IC50 (HUVEC): < 10000 nM

Cc1ccnc(NCC2CCN(c3ccc(CC(NC(=O)C(c4ccccc4)C(C)C)C(=O)O)cc3)CC2)c1 (centres unmarked) [Compound 266, 2-(3-methyl-2-phenyl-butyrylamino)-3-(4-{4-[(4-methyl-pyridin-2-ylamino)methyl]piperidin-1-yl}phenyl)propionic acid]
IC50 [1]: < 100 nM | IC50 (Integrin alphaIIbbeta3): > 1000 nM | IC50 (alpha5beta1): < 2000 nM

Cc1ccnc(NCC2CC(=O)N(c3ccc(CC(NC(=O)c4c(C)cc(C)cc4C)C(=O)O)cc3)C2)c1 (centres unmarked) [Compound 114, 3-(4-(4-((4-methylpyridin-2-ylamino)methyl)-2-oxopyrrolidin-1-yl)phenyl)-2-(2,4,6-trimethylbenzamido)propanoic acid]
IC50 [1]: < 100 nM | IC50 (alpha5beta1): < 2000 nM | IC50 (HUVEC): < 10000 nM

Cc1ccnc(NCC2CCN(c3ccc(CC(NC(=O)c4c(C)cc(C)cc4C)C(=O)O)cc3)CC2)c1 (centres unmarked) [Compound 8, 3-(4-(4-((4-methylpyridin-2-ylamino)methyl)piperidin-1-yl)phenyl)-2-(2,4,6-trimethylbenzamido)propanoic acid]
IC50 [1]: < 100 nM | IC50 (Integrin alphaIIbbeta3): > 1000 nM | IC50 (alpha5beta1): < 2000 nM | IC50 (HUVEC): < 10000 nM

Cc1ccnc(NCC2CCN(c3ccc(CC(NC(=O)c4ccccc4)C(=O)O)cc3)CC2)c1 (centres unmarked) [Compound 262, 2-benzoylamino-3-(4-{4-[(4-methyl-pyridin-2-ylamino)methyl]piperidin-1-yl}phenyl)propionic acid]
IC50 [1]: < 100 nM | IC50 (alpha5beta1): 2000 to 20000 nM

Cc1cc(C)c(C(=O)NC(Cc2ccc(N3CCC(CNc4nc5ccccc5[nH]4)CC3)cc2)C(=O)O)c(C)c1 (centres unmarked) [Compound 20, 3-(4-(4-((1H-benzo[d]imidazol-2-ylamino)methyl)piperidin-1-yl)phenyl)-2-(2,4,6-trimethylbenzamido)propanoic acid]
IC50 [1]: > 100 nM | IC50 (Integrin alphaIIbbeta3): > 1000 nM | IC50 (alpha5beta1): 2000 to 20000 nM

COc1ccnc(NCC2CCN(c3ccc(CC(NC(=O)c4c(C)cc(C)cc4C)C(=O)O)cc3)CC2)c1 (centres unmarked) [Compound 147, 3-(4-(4-((4-methoxypyridin-2-ylamino)methyl)piperidin-1-yl)phenyl)-2-(2,4,6-trimethylbenzamido)propanoic acid]
IC50 [1]: < 100 nM | IC50 (alpha5beta1): < 2000 nM

CCCNC(=O)NCC1CCN(c2ccc(CC(NC(=O)c3c(C)cc(C)cc3C)C(=O)O)cc2)CC1 (centres unmarked) [Compound 269, 3-(4-{4-[(3-propyl-ureido)methyl]piperidin-1-yl}phenyl)-2-(2,4,6-trimethyl-benzoylamino)propionic acid]
IC50 [1]: < 100 nM | IC50 (Integrin alphaIIbbeta3): > 1000 nM | IC50 (alpha5beta1): > 20000 nM

Cc1ccnc(NCC2CCN(c3ccc(CC(NC(=O)C4(C)CCCCC4)C(=O)O)cc3)CC2)c1 (centres unmarked) [Compound 75, 2-(1-methylcyclohexanecarboxamido)-3-(4-(4-((4-methylpyridin-2-ylamino)methyl)piperidin-1-yl)phenyl)propanoic acid]
IC50 [1]: < 100 nM | IC50 (Integrin alphaIIbbeta3): > 1000 nM | IC50 (alpha5beta1): < 2000 nM

Cc1cc(C)c(C(=O)NC(Cc2ccc(N3CC(CNc4ccccn4)C3)cc2)C(=O)O)c(C)c1 (centres unmarked) [Compound 11, 3-(4-(3-((pyridin-2-ylamino)methyl)azetidin-1-yl)phenyl)-2-(2,4,6-trimethylbenzamido)propanoic acid]
IC50 [1]: > 100 nM | IC50 (Integrin alphaIIbbeta3): > 1000 nM | IC50 (alpha5beta1): > 20000 nM

Cc1cc(C)c(C(=O)NC(Cc2ccc(N3CCC(c4ccc5c(n4)NCCC5)CC3)cc2)C(=O)O)c(C)c1 (centres unmarked) [Compound 23, 3-(4-(4-(5,6,7,8-tetrahydro-1,8-naphthyridin-2-yl)piperidin-1-yl)phenyl)-2-(2,4,6-trimethylbenzamido)propanoic acid]
IC50 [1]: < 100 nM | IC50 (Integrin alphaIIbbeta3): > 1000 nM | IC50 (alpha5beta1): < 2000 nM | IC50 (HUVEC): < 10000 nM

CC1(C(=O)NC(CC2CCN(C(=O)CCc3ccc4c(n3)NCCC4)CC2)C(=O)O)CCCCC1 (centres unmarked) [Compound 29, 2-(1-methylcyclohexanecarboxamido)-3-(1-(3-(5,6,7,8-tetrahydro-1,8-naphthyridin-2-yl)propanoyl)piperidin-4-yl)propanoic acid]
IC50 [1]: < 100 nM | IC50 (Integrin alphaIIbbeta3): > 1000 nM | IC50 (alpha5beta1): 2000 to 20000 nM | IC50 (HUVEC): > 20000 nM
